Test results taken from paper PMC11258351, “PK/PD investigation of antiviral host matriptase/TMPRSS2 inhibitors in cell models” (Scientific Reports, 2024).
Several values for one entry are separate records, joined by “and”; a condition that tells them apart may be missing. Equal entries are not always repeated. Entries after “also recorded” stand apart in the source; their conditions may differ. Where two headings read alike, the source gives them in different places.

Tests used:
CYP2D6 [1] = target: T1, CYP2D6 (Homo sapiens, UniProt P10635); assay: Fluorometric CYP2D6 activity assay in human hepatic microsomes; conditions: human liver microsomes; for Inhibition of CYP2D6 activity: protease inhibitors at 50 µM, 15 min 37 °C
T1 sequence (P10635 whole entry): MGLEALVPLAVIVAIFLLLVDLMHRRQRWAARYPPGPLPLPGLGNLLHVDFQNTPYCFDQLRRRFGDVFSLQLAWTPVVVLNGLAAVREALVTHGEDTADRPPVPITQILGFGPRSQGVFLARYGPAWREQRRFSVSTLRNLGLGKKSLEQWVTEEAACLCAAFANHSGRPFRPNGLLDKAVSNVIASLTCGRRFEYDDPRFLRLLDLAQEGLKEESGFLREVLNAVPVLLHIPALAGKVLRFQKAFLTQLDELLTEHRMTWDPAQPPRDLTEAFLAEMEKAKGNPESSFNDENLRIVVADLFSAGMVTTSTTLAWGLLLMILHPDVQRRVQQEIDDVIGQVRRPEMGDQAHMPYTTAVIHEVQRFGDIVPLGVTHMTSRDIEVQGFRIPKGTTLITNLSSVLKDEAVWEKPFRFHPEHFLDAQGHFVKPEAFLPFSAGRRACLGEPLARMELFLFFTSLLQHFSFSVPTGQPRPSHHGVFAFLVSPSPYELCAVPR

[2] = Prediction of in vivo human PK parameters from hepatocyte clearance; type: in vitro ADME; conditions: for Classification (extraction type) / Extraction ratio EH: predicted; for Predicted Cl, CLH: predicted from hepatocyte Clint, fu = 1
[3] = test system: H9N2 IAV strain A/quail/Shantou/782/00; type: cell-based, influenza A virus; conditions: MDCK-II cells, 24 h
CYP1A2 [4] = target: T2, CYP1A2 (Homo sapiens, UniProt P05177); assay: Fluorometric CYP1A2 activity assay in human hepatic microsomes; conditions: human liver microsomes, protease inhibitors at 50 µM, 15 min 37 °C
T2 sequence (P05177 1-516): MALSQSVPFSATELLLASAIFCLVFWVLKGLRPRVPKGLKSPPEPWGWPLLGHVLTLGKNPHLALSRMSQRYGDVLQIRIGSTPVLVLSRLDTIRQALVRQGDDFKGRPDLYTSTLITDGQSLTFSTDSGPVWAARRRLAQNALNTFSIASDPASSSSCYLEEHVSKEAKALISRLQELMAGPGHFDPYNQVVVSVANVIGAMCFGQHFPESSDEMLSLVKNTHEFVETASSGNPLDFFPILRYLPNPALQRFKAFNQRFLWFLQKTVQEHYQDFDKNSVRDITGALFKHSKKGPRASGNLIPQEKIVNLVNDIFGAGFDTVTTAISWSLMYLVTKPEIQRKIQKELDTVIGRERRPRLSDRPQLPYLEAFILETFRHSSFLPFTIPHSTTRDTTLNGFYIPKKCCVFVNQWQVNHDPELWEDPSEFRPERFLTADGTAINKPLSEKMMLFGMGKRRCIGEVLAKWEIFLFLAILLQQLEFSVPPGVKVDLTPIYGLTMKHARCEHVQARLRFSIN

CYP2C9 [5] = target: T3, CYP2C9 (Homo sapiens, UniProt P11712); assay: Fluorometric CYP2C9 activity assay in human hepatic microsomes; conditions: human liver microsomes, protease inhibitors at 50 µM, 15 min 37 °C
T3 sequence (P11712 whole entry): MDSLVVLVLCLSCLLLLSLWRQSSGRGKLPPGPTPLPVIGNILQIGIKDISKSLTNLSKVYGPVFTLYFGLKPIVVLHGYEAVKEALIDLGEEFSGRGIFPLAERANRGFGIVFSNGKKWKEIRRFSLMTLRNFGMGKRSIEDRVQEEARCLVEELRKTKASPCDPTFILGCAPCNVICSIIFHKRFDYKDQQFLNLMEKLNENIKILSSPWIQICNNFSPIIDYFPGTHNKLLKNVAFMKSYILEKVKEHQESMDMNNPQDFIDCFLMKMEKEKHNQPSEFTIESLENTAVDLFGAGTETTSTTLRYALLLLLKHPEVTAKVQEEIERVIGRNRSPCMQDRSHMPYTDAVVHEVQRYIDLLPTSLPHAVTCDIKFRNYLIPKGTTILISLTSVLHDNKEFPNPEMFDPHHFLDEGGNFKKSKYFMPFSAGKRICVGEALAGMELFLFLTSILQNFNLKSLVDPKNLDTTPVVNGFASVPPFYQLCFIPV

CYP3A4 [6] = target: T4, CYP3A4 (Homo sapiens, UniProt P08684); assay: Fluorometric CYP3A4 activity assay in human hepatic microsomes; conditions: for Effect on CYP3A4 enzyme activity: human liver microsomes, 10, 25 and 50 µM; for Effect on CYP3A4 enzyme activity at the lowest applied concentration: human liver microsomes, lowest applied concentration (10 µM)
T4 sequence (P08684 whole entry): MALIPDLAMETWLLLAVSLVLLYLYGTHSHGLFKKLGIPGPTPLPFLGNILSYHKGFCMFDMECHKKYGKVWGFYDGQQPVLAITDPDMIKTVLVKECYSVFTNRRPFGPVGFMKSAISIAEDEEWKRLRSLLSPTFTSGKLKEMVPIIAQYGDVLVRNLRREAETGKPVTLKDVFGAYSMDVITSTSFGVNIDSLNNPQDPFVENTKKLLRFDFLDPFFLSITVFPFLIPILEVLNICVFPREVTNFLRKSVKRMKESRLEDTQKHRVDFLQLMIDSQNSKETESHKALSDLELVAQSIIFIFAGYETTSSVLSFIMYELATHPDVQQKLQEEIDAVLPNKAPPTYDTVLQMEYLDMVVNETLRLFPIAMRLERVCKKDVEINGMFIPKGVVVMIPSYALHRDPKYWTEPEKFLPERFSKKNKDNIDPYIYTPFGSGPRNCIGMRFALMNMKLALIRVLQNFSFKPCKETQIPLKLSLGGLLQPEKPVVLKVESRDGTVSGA

CYP2C19 [7] = target: T5, CYP2C19 (Homo sapiens, UniProt P33261); assay: Fluorometric CYP2C19 activity assay in human hepatic microsomes; conditions: human liver microsomes, protease inhibitors at 50 µM, 15 min 37 °C
T5 sequence (P33261 whole entry): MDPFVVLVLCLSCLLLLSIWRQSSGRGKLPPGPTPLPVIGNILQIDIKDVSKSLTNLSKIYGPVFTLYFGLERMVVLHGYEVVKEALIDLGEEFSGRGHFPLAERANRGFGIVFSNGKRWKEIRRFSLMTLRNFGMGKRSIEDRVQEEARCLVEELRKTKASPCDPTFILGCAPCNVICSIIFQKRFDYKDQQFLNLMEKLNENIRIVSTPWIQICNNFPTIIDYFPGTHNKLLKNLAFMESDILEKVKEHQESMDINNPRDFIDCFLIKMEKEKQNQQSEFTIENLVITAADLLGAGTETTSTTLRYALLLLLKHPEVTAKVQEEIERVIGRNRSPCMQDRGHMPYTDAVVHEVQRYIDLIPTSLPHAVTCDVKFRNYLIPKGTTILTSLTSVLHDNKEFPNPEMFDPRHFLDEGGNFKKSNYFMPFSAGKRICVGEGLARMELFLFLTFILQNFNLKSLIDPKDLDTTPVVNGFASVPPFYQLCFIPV

[8] = Depletion of inhibitors in human primary hepatocyte suspension (LC-MS/MS); conditions: human, cryopreserved primary human hepatocytes in suspension; for CLint scaled at 10 µM: intrinsic clearance from primary human hepatocytes scaled to whole liver/body weight
[9] = test system: human primary hepatocytes; assay: as above; conditions: for Parent compound retained at the 120-min sampling point / Sampling interval at which significant depletion was first observed: primary human hepatocytes, 10 µM; for Parent compound retained at the 120-min sampling point: % of 0-min concentration, mean ± S.E.M.; for Sampling interval at which significant depletion was first observed: sampling 0-120 min
[10] = test system: H9N2 IAV strain A/quail/Shantou/782/00; type: cell-based, influenza A virus; conditions: MDCK-II cells
A/Hamburg/5/09 (H1N1pdm) = type: cell-based, influenza A virus
[11] = test system: primary human hepatocytes; assay: Cytotoxicity in primary human hepatocytes; type: cell-based; conditions: 50 µM, 24 h
Experimental: Supplementary Figure S1. Cytotoxicity of MI-463 and MI-1900 at 50 µM for 24 h in primary human hepatocytes. DMSO was applied as solvent control at 0.5% for 24 h.

CYP1A2 [12] = target: T2, CYP1A2; parameters: method as in PMID 34915414; conditions: earlier study; cited from earlier work
CYP2C9 [13] = target: T3, CYP2C9; parameters: method as in PMID 34915414; conditions: earlier study; cited from earlier work
CYP2C19 [14] = target: T5, CYP2C19; parameters: method as in PMID 34915414; conditions: earlier study; cited from earlier work
CYP2D6 [15] = target: T1, CYP2D6; parameters: method as in PMID 34915414; conditions: earlier study; cited from earlier work
matriptase = target: matriptase; parameters: method as in PMID 35635944; conditions: cited from earlier work
TMPRSS2 = target: TMPRSS2; parameters: method as in PMID 35635944; conditions: cited from earlier work
monkey CYP1A2 = test system: monkey CYP1A2; parameters: method as in PMID 35448654; conditions: cited from earlier work
rat CYP1A2 = test system: rat CYP1A2; parameters: method as in PMID 35448654; conditions: cited from earlier work
beagle dog CYP1A2 = test system: beagle dog CYP1A2; parameters: method as in PMID 35448654; conditions: cited from earlier work
[16] = test system: cynomolgus monkey hepatocytes; parameters: method as in PMID 31391268; conditions: cited from earlier work
H9N2 = conditions: MDCK-II cells, 20 μM and 50 μM; cited from earlier work
CYP3A4 [17] = target: T4, CYP3A4; parameters: method as in PMID 34915414; conditions: fluorometric assays, earlier study; cited from earlier work
SARS-CoV-2 = test system: SARS-CoV-2; parameters: method as in PMID 32703818; conditions: Calu-3 cells, 50 μM, 24 h p.i.; cited from earlier work
Calu-3 cells = test system: Calu-3 cells; parameters: method as in PMID 32703818; conditions: 50 μM; cited from earlier work

Structure (SMILES): C=C[C@H]1C[N@@]2CC[C@H]1C[C@@H]2[C@@H](O)c1ccnc2ccc(OC)cc12 [quinidine, reference compound]
- Inhibition of CYP2D6 activity by reference inhibitor (CYP2D6 [1]; 3 µM, p < 0.001): significantly suppressed

Structure (SMILES): CC(C)(C)NC(=O)NC1CCN(C(=O)[C@H](Cc2cccc(C(=N)N)c2)NS(=O)(=O)c2cccc(-c3ccc(CO)cc3)c2)CC1 [MI-1903]
- Classification (extraction type) [2]: Intermediate
- Extraction ratio EH [2]: 0.51
- Predicted Cl, CLH [2]: 10.56
- H9N2 viral spread / formation of viral foci ([3]; MOI 0.01, 50 µM): only slightly reduced formation of viral foci
- Inhibition of CYP1A2 activity (CYP1A2 [4]): No significant CYP inhibitory potential
- Inhibition of CYP2C9 activity (CYP2C9 [5]): No significant CYP inhibitory potential
- Inhibition of CYP2D6 activity (CYP2D6 [1]): No significant CYP inhibitory potential
- Effect on CYP3A4 enzyme activity (CYP3A4 [6]): significant inhibitory effect
- Inhibition of CYP2C19 activity (CYP2C19 [7]): No significant CYP inhibitory potential
- half-life at 10 µM [8]: 0.753 h
- CLint scaled at 10 µM [8]: 6.06 L/h/kg
- CLint ([9]; intrinsic clearance from primary human hepatocytes scaled to whole liver/body weight): 6.0618 L/h/kg
- Parent compound retained at the 120-min sampling point [9]: 38.6 ± 5.5%
- Sampling interval at which significant depletion was first observed [9]: 30 min

Structure (SMILES): COc1ccc(-c2cccc(S(=O)(=O)N[C@@H](Cc3cccc(C(=N)N)c3)C(=O)N3CCC(NC(=O)NC4CCCCC4)CC3)c2)c(OC)c1 [MI-463]
- Classification (extraction type) [2]: Intermediate
- Extraction ratio EH [2]: 0.37
- Predicted Cl, CLH [2]: 7.60
- H9N2 viral spread / formation of viral foci ([3]; MOI 0.01, 20 µM): marked reduction of viral spread
- H9N2 viral spread / formation of viral foci ([3]; MOI 0.01, 50 µM): fully prevented formation of viral foci; also recorded: fully preventing the formation of H9N2 viral foci
- Reduction of H9N2 viral titers compared to untreated controls ([10]; 20 µM, 24 h): approximately 1.4 log
- Reduction of H9N2 viral titers compared to untreated controls ([10]; 20 µM, 48 h): 2.1 logs
- Reduction of H9N2 viral titers compared to untreated controls ([10]; 50 µM, 24 h): ~1.8 log
- Reduction of H9N2 viral titers compared to untreated controls ([10]; 50 µM, 48 h): 2.6 logs
- Reduction of H1N1 viral titers (A/Hamburg/5/09 (H1N1pdm)): 0.95–1.34 logs
- Cytotoxicity in primary human hepatocytes [11]: No significant differences in cell viabilities; also recorded: lack of cytotoxicity
- Inhibition of CYP1A2 activity (CYP1A2 [12]): No significant CYP inhibitory potential
- Inhibition of CYP2C9 activity (CYP2C9 [13]): No significant CYP inhibitory potential
- Inhibition of CYP2C19 activity (CYP2C19 [14]): No significant CYP inhibitory potential
- Inhibition of CYP2D6 activity (CYP2D6 [15]): No significant CYP inhibitory potential
- Ki (matriptase): 0.004 µM
- Ki (TMPRSS2): 0.003 µM
- Inhibition of monkey CYP1A2 (monkey CYP1A2): significant inhibition
- Inhibition of rat CYP1A2 (rat CYP1A2): significant inhibition
- Inhibition of beagle dog CYP1A2 (beagle dog CYP1A2): no significant inhibition
- Treatment time after which significant conversion was seen [16]: 60 to 120 min
- Effect on CYP3A4 enzyme activity (CYP3A4 [6]): significant inhibitory effect
- Effect on CYP3A4 enzyme activity at the lowest applied concentration (CYP3A4 [6]): potent inhibitors
- half-life at 10 µM [8]: 3.57 h
- CLint scaled at 10 µM [8]: 1.28 L/h/kg
- Parent compound retained at the 120-min sampling point [9]: 66.7 ± 5.5% and 66.7%
- Sampling interval at which significant depletion was first observed [9]: 30 min

Structure (SMILES): COc1ccc(-c2cccc(S(=O)(=O)N[C@@H](Cc3cccc(C(=N)N)c3)C(=O)N3CCC(NC(=O)NC(C)(C)C)CC3)c2)c(OC)c1 [MI-485]
- Classification (extraction type) [2]: Intermediate
- Extraction ratio EH [2]: 0.39
- Predicted Cl, CLH [2]: 8.17
- Treatment time after which significant conversion was seen [16]: 60 to 120 min
- Effect on H9N2 virus propagation (H9N2): most pronounced reduction
- Inhibition of CYP1A2 activity (CYP1A2 [4]): No significant CYP inhibitory potential
- Inhibition of CYP2C9 activity (CYP2C9 [5]): No significant CYP inhibitory potential
- Inhibition of CYP2D6 activity (CYP2D6 [1]): No significant CYP inhibitory potential
- Effect on CYP3A4 enzyme activity (CYP3A4 [6]): significant inhibitory effect
- Effect on CYP3A4 enzyme activity at the lowest applied concentration (CYP3A4 [6]): potent inhibitors
- Inhibition of CYP2C19 activity (CYP2C19 [7]): No significant CYP inhibitory potential
- half-life at 10 µM [8]: 2.86 h
- CLint scaled at 10 µM [8]: 1.6 L/h/kg
- Parent compound retained at the 120-min sampling point [9]: 64.9 ± 5.3%
- Sampling interval at which significant depletion was first observed [9]: 30 min

Structure (SMILES): CC(C)(C)NC(=O)NC1CCN(C(=O)[C@H](Cc2cccc(C(=N)N)c2)NS(=O)(=O)c2cccc(-c3ccc(CO)c(F)c3)c2)CC1 [MI-1904]
- Classification (extraction type) [2]: Intermediate
- Extraction ratio EH [2]: 0.35
- Predicted Cl, CLH [2]: 7.29
- Effect on H9N2 virus propagation (H9N2): most pronounced reduction
- Inhibition of CYP1A2 activity (CYP1A2 [4]): No significant CYP inhibitory potential
- Inhibition of CYP2C9 activity (CYP2C9 [5]): No significant CYP inhibitory potential
- Inhibition of CYP2D6 activity (CYP2D6 [1]): No significant CYP inhibitory potential
- Effect on CYP3A4 enzyme activity (CYP3A4 [6]): significant inhibitory effect
- Inhibition of CYP2C19 activity (CYP2C19 [7]): No significant CYP inhibitory potential
- half-life at 10 µM [8]: 3.99 h
- CLint scaled at 10 µM [8]: 1.15 L/h/kg
- Parent compound retained at the 120-min sampling point [9]: 70.8 ± 8.6%
- Sampling interval at which significant depletion was first observed [9]: 120 min

Structure (SMILES): COc1ccc(-c2cccc(S(=O)(=O)N[C@@H](Cc3cccc(C(=N)N)c3)C(=O)N3CCN(C(=O)NC4CCCCC4)CC3)c2)c(OC)c1 [MI-1900]
- Classification (extraction type) [2]: Intermediate
- Extraction ratio EH [2]: 0.45
- Predicted Cl, CLH [2]: 9.23
- H9N2 viral spread / formation of viral foci ([3]; MOI 0.01, 50 µM): strong suppression of viral spread
- Reduction of H1N1 titers (A/Hamburg/5/09 (H1N1pdm)): 1.62 logs
- Cytotoxicity in primary human hepatocytes [11]: No significant differences in cell viabilities; also recorded: lack of cytotoxicity
- Inhibition of CYP1A2 activity (CYP1A2 [12]): No significant CYP inhibitory potential
- Inhibition of CYP2C9 activity (CYP2C9 [13]): No significant CYP inhibitory potential
- Inhibition of CYP2C19 activity (CYP2C19 [14]): No significant CYP inhibitory potential
- Inhibition of CYP2D6 activity (CYP2D6 [15]): No significant CYP inhibitory potential
- Inhibition of CYP3A4 activity (CYP3A4 [17]): substantial inhibitory effects
- Ki (matriptase): 0.038 µM
- Ki (TMPRSS2): 0.079 µM
- Reduction of SARS-CoV-2 viral titers compared to control samples (SARS-CoV-2): 35 to 280 fold
- Influence on Calu-3 cell viability (Calu-3 cells): without influencing Calu-3 cell viabilitiy significantly
- Inhibition of monkey CYP1A2 (monkey CYP1A2): significant inhibition
- Inhibition of rat CYP1A2 (rat CYP1A2): significant inhibition
- Inhibition of beagle dog CYP1A2 (beagle dog CYP1A2): no significant inhibition
- Treatment time after which significant conversion was seen [16]: 60 to 120 min
- Effect on H9N2 virus propagation (H9N2): strongly inhibiting its replication
- half-life at 10 µM [8]: 1.8 h
- CLint scaled at 10 µM [8]: 2.54 L/h/kg
- Parent compound retained at the 120-min sampling point [9]: 48.6 ± 1.5%
- Sampling interval at which significant depletion was first observed [9]: 30 min
